Data taken from patent publication US20200199247A1, “ANTIBODY CONJUGATES OF IMMUNE-MODULATORY COMPOUNDS AND USES THEREOF” (SILVERBACK THERAPEUTICS, INC., priority 2017, published 2020).
Peptide text beside a SMILES is read from it. * marks the point of attachment. Cbz = O=C(OCc1ccccc1)*

What was measured:
TGFβR1 [1] = target: T1, TGFβR1 (Homo sapiens, UniProt P36897); assay: Cellular level of TGFβR1 in normal human lung fibroblasts with or without proteasome inhibitor (western blot); type: cell-based; set-up: endogenous in cells; host or cells: normal human lung fibroblasts
T1 sequence (P36897 34-503): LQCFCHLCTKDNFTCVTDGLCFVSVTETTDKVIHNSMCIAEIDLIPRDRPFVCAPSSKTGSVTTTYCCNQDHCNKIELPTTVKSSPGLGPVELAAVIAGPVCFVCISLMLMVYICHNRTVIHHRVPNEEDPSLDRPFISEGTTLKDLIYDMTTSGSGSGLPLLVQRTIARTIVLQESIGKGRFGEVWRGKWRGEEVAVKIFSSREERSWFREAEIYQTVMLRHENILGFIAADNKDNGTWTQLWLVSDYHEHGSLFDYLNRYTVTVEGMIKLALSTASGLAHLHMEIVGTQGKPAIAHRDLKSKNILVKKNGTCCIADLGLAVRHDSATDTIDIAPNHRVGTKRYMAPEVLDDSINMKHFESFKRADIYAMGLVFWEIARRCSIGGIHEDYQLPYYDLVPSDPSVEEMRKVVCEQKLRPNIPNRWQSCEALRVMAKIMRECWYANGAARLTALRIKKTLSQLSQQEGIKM
Method: Cells are plated, allowed to adhere, and treated with vehicle, an inhibitor, a PROTAC or a conjugate in the presence or absence of proteasome inhibitor, such as MG-132. After treatment, media is aspirated and cells are rinsed with ice cold PBS. Ice cold lysis buffer (20 mM TrisHCl pH 7.5, 150 mM NaCl, 1% Triton X-100, 2 mM EDTA and 10% glycerol) containing phosphatase and protease inhibitors is added to wells and cells are removed from the plate using a cell scraper. Lysates are transferred to a 1.5 ml tube and rocked for one hour at 4° C. with vortexing every ˜15 minutes. Tubes are spun at 8500×g for 10 minutes and supernatants are drawn into an insulin needle twice. Cell lysates are frozen at […]. Protein concentration is determined using a BCA assay and equal amounts of samples are boiled with reducing loading buffer. The samples are then subjected to electrophoresis on 4-20% polyacrylamide gels which are then transferred to PVDF membranes. […] Loading controls are detected with 1:15000 diluted primary antibody incubation at room temperature for 1 hour with rocking (Tubulin—Abcam, ab7291; Actin—Abcam, ab8224). […]
Normal human lung fibroblasts were treated with or without proteasome inhibitor MG-132 followed by the addition of DMSO or T-20. Whole cell lysates were prepared and then quantitated with a BCA assay. […] TGFβR1, TGFβR2, and actin were detected using commercially available reagents. […]

TGFβR1 [2] = target: T1, TGFβR1; assay: TGFβR1 level in HER2-transfected HEK293 cells (western blot); type: cell-based; set-up: Plasmid expressing HER2 was transfected into HEK293 cells; endogenous in cells; host or cells: HEK293 cells transiently transfected with a HER2 plasmid; conditions: 2, 24 and 48 hours of treatment
Method: After treatment, media is aspirated and cells are rinsed with ice cold PBS. Ice cold lysis buffer (20 mM TrisHCl pH 7.5, 150 mM NaCl, 1% Triton X-100, 2 mM EDTA and 10% glycerol) containing phosphatase and protease inhibitors is added to wells and cells are removed from the plate using a cell scraper. Lysates are transferred to a 1.5 ml tube and rocked for one hour at 4° C. with vortexing every ˜15 minutes. Tubes are spun at 8500×g for 10 minutes and supernatants are drawn into an insulin needle twice. Cell lysates are frozen at ˜80° C. Protein concentration is determined using a BCA assay and equal amounts of samples are boiled with reducing loading buffer. […] Loading controls are detected with 1:15000 diluted primary antibody incubation at room temperature for 1 hour with rocking (Tubulin—Abcam, ab7291; Actin—Abcam, ab8224). […]
Plasmid expressing HER2 was transfected into HEK293 cells using commercially available materials and conditions. […] Whole cell lysates were prepared from cells after 2, 24, or 48 hours incubation and quantitated with a BCA assay. Equal amounts of lysates were run on protein gels, transferred to PVDF, and TGFβR2 was detected using commercially available reagents. To quantitate the amount of protein degradation, the signals on the Western blot were adjusted to actin loading control and data is presented as a percent of matched control.

Row | Structure (SMILES) | degradation of TGFβR1 (TGFβR1 [1]; 5 μM T-20) | amount of TGFβR1 protein (TGFβR1 [2]) | effect of proteasome inhibitor on T-20 induced degradation of TGFβR1 (TGFβR1 [1]; MG132 10 and 50 μM followed by 5 μM T-20)
1 | Nc1ncc(-c2ccc(CCNC(=O)[C@@H](N)CCCCNC(=O)COc3cccc4c3C(=O)N(C3CCC(=O)NC3=O)C4=O)cc2)nc1C(=O)Nc1cnccc1N1CCOCC1 (stereo partly drawn) [Compound T-20, 3-amino-6-(4-(2-((2S)-2-amino-6-(2-((2-(2,6-dioxopiperidin-3-yl)-1,3-dioxoisoindolin-4-yl)oxy)acetamido)hexanamido)ethyl)phenyl)-N-(4-morpholinopyridin-3-yl)pyrazine-2-carboxamide] | degradation induced by T-20 | remained fairly constant | –
2 | CC(C)C[C@@H](C=O)NC(=O)[C@H](CC(C)C)NC(=O)[C@H](CC(C)C)NC(=O)OCc1ccccc1 [MG-132, reference compound] (Cbz-Leu-Leu-Leu-aldehyde) | – | – | protected
